Results reported in the NIST ThermoML archive (doi:10.1016/j.jct.2016.04.014).

Settings: Liquid, Vibrating tube method

CCCCCCC [heptane]
mass density [kg/m3]
Settings	323.15 K	328.15 K	333.15 K	343.15 K	353.15 K	363.15 K	373.15 K	393.15 K	413.15 K
100 kPa	–	653.9	649.5	640.5	631.3	621.9	–	–	–
1000 kPa	–	654.9	650.6	641.6	632.5	623.2	614.2	594.6	574.1
5000 kPa	–	659.3	655.1	646.5	637.8	628.9	620.2	601.7	582.3
10000 kPa	–	664.5	660.5	652.3	644	635.6	627.4	610	592
15000 kPa	–	669.5	665.7	657.8	649.9	641.9	634.1	617.8	600.9
20000 kPa	–	674.3	670.6	663.1	655.5	647.9	640.4	625	609.2
25000 kPa	–	678.8	675.2	668	660.7	653.4	646.3	631.7	616.9
30000 kPa	–	683	679.6	672.6	665.6	658.6	651.8	637.9	623.9
35000 kPa	–	687	683.7	676.9	670.2	663.5	656.9	643.6	630.2
40000 kPa	694.1	690.8	687.5	681	674.4	667.9	661.5	648.7	635.9
45000 kPa	697.5	694.3	691.1	684.7	678.3	672	665.8	653.3	640.9
50000 kPa	700.7	697.6	694.4	688.1	681.9	675.7	669.6	657.4	645.2
55000 kPa	703.7	700.6	697.4	691.3	685.1	679	673.1	660.9	648.9
60000 kPa	706.4	703.3	700.2	694.1	688	681.9	676.1	663.9	651.9
